Experimental data taken from patent publication EP1001774B1, “USE OF PHOSPHOLAMBAN INHIBITORS FOR INCREASING CORONARY FLOW” (ORION CORPORATION, priority 1997, dated 1999).

Key:
SR Ca^2+-ATPase = test: Calcium uptake assay (fluo-3) in SR vesicles from fast skeletal muscle (psoas m.), which contain no phospholamban; format: biochemical, guinea-pig; conditions: vesicles from fast skeletal muscle, 0.04 µM free calcium
Excerpt: (§1) The direct binding of a compound to the phospholamban protein can be ascertained by the circular dichroism (CD) spectroscopy. The methods for determining whether a compound relieves the inhibitory effect of phospholamban on SR Ca^2+-ATPase by direct binding to the phospholamban protein, i.e. is a phospholamban inhibitor, are illustrated in detail in the experimental section.
(§2) The effect on phospholamban of the compounds used in the invention was verified by measuring its effects on calcium uptake into the SR vesicles prepared from cardiac tissue and into vesicles prepared from fast skeletal muscle (psoas m.). […] The methods are described below in detail.
(§3) Guinea pigs (10-12) were decapited. Their hearts or the psoas muscles were excised, washed in ice-cold 0.9 % NaCl and cut into pieces in a buffer containing 20 mM Tris-maleate, 0.3 M sucrose, pH 7.0. Thereafter tissue pieces were homogenized with Polytron and further with Potter (10 strokes). The homogenate was centrifugated at 1000 g for 15 min at 4 °C. The supernatant was collected and the pellet was resuspended into 5 ml of the buffer (20 mM Tris-maleate, 0.3 M sucrose, pH 7.0) and recentrifugated at 1000 g for 10 min at 4 °C. The obtained supernatant was combined with the earlier collected supernatant and centrifugated once again at 10 000 g for 20 min at 4 °C. The final supernatant was filtered into a bottle equipped with a magnetic stirrer. KCl was added to the filtered supernatant to achieve the final concentration of 0.6 M (at 4 °C). The obtained solution was centrifugated at 100 000 g for 60 min at 4 °C. The pellet was suspended in 5 ml of the buffer containing 20 mM Tris-maleate, 0.3 M sucrose, pH 7.0 and centrifugated at 100 000 g for 60 min at 4 °C. The obtained pellet was suspended in 5 ml of buffer containing 20 mM Tris-maleate, 0.3 M sucrose, 0.1 M KCI, pH 7.0 and stored at -80 °C until use. The protein concentration was also measured in order to standardise the separately prepared vesicle preparations.
(§4) In the calcium uptake assay, the fluorescent indicator, fluo-3 was used to detect the decrease of the extravesicular Ca^2+-concentration, when the SR Ca^2+ATPase was transferring Ca^2+ from the extravesicular space into the SR-vesicles.
(§5) The SR-vesicles obtained above (50 µg protein/ml) were preincubated with or without the test compound at 37 °C for 5 min in the assay buffer containing 40 mM imidazole, 95 mM KCI, 5 mM NaN3, 5 mM MgCl2, 0.5 mM EGTA, 5 mM potassium oxalate, 2 µM ruthenium red, 5 µM fluo-3, pH 7.0. The free calcium was adjusted to 0.1 µM or to 0.04 µM by CaCl2. The reaction was initiated by adding ATP (5 mM). The final reaction volume was 1.5 ml. The fluorescence of reaction mixture was measured for 3 min by using the excitation and emission wavelengths of 510 nm and 530 nm, respectively.

coronary arteries = test: Coronary flow in isolated paced heart (Langendorff, constant pressure); design: species or system guinea-pig; conditions: Cavia porcellus; for Emax at 10 µM / Emax at 3 µM / Emax at 30 µM: read-out: Maximum effect (% change from baseline) on the coronary flow; for EC50: isolated heart, constant pressure 50 mmHg, paced at 250 beats/min
Procedure: Guinea-pigs of either sex weighing 300-400 g were used in the study. After the guinea-pig was sacrificed by a blow on the skull and decapitated the heart was rapidly excised. The heart was then rinsed in cold oxygenated perfusion buffer. A cannula was inserted into the aorta and secured with a ligature. Retrograde perfusion began as soon as the heart was placed in a thermostatically controlled moist chamber of the Langendorff apparatus. Modified Tyrode solution (37 °C), equilibrated in a thermostatically controlled bulb oxygenator with carbogen (95 % O2 and 5% CO2) was used as a perfusion buffer. The composition of the Tyrode solution was (in mM): NaCl 135; MgCl2 x 6H2O 1; KCl 5; CaCl2 x 2H2O 2; NaHCO3 15; Na2HPO4 x 2H2O 1; glucose 10; pH 7.3-7.4. The experiments were carried out under constant pressure condition (50 mmHg). After a short prestabilization (10 min) a latex balloon (size 4) was carefully placed into the left ventricle through the left pulmonary vein and the left atrium. The latex balloon was attached to a stainless-steel cannula coupled with a pressure transducer. The latex balloon, the cannula and the chamber of the pressure transducer were filled with ethylene glycol / water (1:1) mixture avoiding any air-bubble. The isovolumetric left ventricular pressure was recorded through the pressure transducer. The maximal positive and negative derivatives of the left ventricular pressure were calculated by using the digitized pressure signals. At the beginning of the experiment, the volume of the balloon was adjusted to obtain a diastolic pressure of approximately 5 mmHg. Coronary flow (ml/min) was continuously recorded by an electromagnetic flow meter with a flow probe inserted above the aortic cannula. The heart was paced at 250 beats/min with a coaxial electrode localized on the surface of the right atrium. Before starting the experiment, the heart was allowed to stabilise further for 30 - 50 min with vehicle (0.1% DMSO) to reach a stable coronary flow.
After 15 min baseline recording various concentrations of the test compound of Example 1c were added to the perfusion buffer at 15 min intervals. The concentration range of 0.3 - 30 µM was tested. The vehicle concentration (0.1% DMSO) was kept constant throughout the experiment.

phospholamban = target: T1, phospholamban (Cavia porcellus, UniProt A0A286XLC6); test: Calcium uptake assay (fluo-3) in SR vesicles from cardiac tissue; format: biochemical, guinea-pig; conditions: vesicles from ventricular myocardium, 0.1 µM free calcium, read-out: The stimulation (%) of Ca^2+ uptake A; for activation at 10 µM: 10 µM compound; for activation at 100 µM: 100 µM compound
T1 construct: calcium uptake into the SR vesicles prepared from cardiac tissue; from tissue; host or cells: guinea-pig heart (ventricular myocardium), SR vesicle preparation
T1 sequence (A0A286XLC6 1-52): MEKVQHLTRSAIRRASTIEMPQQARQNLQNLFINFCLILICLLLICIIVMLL
Excerpt: as §1, §2, §3, §4, §5

| SMILES | EC50 (coronary arteries) | activation at 100 µM (phospholamban) | Emax at 10 µM (coronary arteries) | Emax at 30 µM (coronary arteries) | further results |
| --- | --- | --- | --- | --- | --- |
| O=c1cc(-c2ccccc2)c2c(OCc3nnn[nH]3)cc(OCc3nnn[nH]3)cc2o1 [Example 5c, 5,7-Bis[(1H-tetrazol-5-yl)methoxy]-4-phenyl-2H-1-benzopyran-2-one] | > 10 µM | – | – | 52% | – |
| Cc1c(Cc2ccccc2)c(=O)oc2cc(OCc3noc(=O)[nH]3)cc(OCc3noc(=O)[nH]3)c12 [Example 3c, 3-Benzyl-5,7-bis[(2,5-dihydro-5-oxo-4H-1,2,4-oxadiazol-3-yl)-methoxy]-4-methyl-2H-1-benzopyran-2-one] | 5 µM | – | – | 174% | The stimulation (%) of Ca^2+ uptake B (SR Ca^2+-ATPase; 20 µM compound): 0%; activation at 20 µM (phospholamban; 20 µM compound): 51% |
| O=c1oc2cc(OCc3nnn[nH]3)cc(OCc3nnn[nH]3)c2c2c1C(c1ccccc1)CCC2 (centres unmarked) [Example 2c, 7,8,9,10-Tetrahydro-1,3-bis[(1H -tetrazol-5-yl)methoxy]-7-phenyl-6H-dibenzo[b,d]pyran-6-one] | – | 26% | – | – | The stimulation (%) of Ca^2+ uptake B (SR Ca^2+-ATPase; 100 µM compound): -1% |
| Cc1cc(=O)n(Cc2ccccc2)c2cc(OCc3nnn[nH]3)cc(OCc3nnn[nH]3)c12 [Example 18e, 1-Benzyl-5,7-bis-[(1H-tetrazol-5-yl)methoxy]-4-methyl-2(1H)-quinolinone] | 5 µM | 13% | – | 69% | – |
| Cc1c(CCc2ccccc2)c(=O)oc2cc(OCc3nnn[nH]3)cc(OCc3nnn[nH]3)c12 [Example 7c, 5,7-Bis[(1H-tetrazol-5-yl)methoxy]-4-methyl-3-(2-phenylethyl)-2H-1benzopyran-2-one] | – | 5% | – | – | The stimulation (%) of Ca^2+ uptake B (SR Ca^2+-ATPase; 100 µM compound): -17% |
| Cc1c(Cc2ccccc2)c(=O)n(Cc2ccc(F)cc2)c2cc(OCc3nnn[nH]3)cc(OCc3nnn[nH]3)c12 [Example 13d] | 6 µM | – | – | 104% | activation at 50 µM (phospholamban; 50 µM compound): 23% |

Continued by falling EC50 (coronary arteries), values first:

| EC50 (coronary arteries) | activation at 100 µM (phospholamban) | SMILES | Emax at 10 µM (coronary arteries) | Emax at 30 µM (coronary arteries) | further results |
| --- | --- | --- | --- | --- | --- |
| 5 µM | 32% | Cc1c(Cc2ccccc2)c(=O)n(Cc2ccccc2)c2cc(OCC(=O)O)cc(OCC(=O)O)c12 [Example 12, 5,7-Bis(carboxymethoxy)-1,3-dibenzyl-4-methyl-2(1H)-quinolinone] | 60% | – | – |
| 2 µM | 11% | Cc1c(Cc2ccccc2)c(=O)n(Cc2ccccc2)c2cc(OCC(N)=O)cc(OCC(N)=O)c12 [Example 21, 5,7-Bis(aminocarbonylmethoxy)-1,3-dibenzyl-4-methyl-2(1H)-quinolinone] | 141% | – | – |
| 1.5 µM | – | Cc1c(Cc2ccc(Cl)cc2)c(=O)oc2cc(OCc3nnn[nH]3)cc(OCc3nnn[nH]3)c12 [Example 14c, 5,7-Bis[(1H-tetrazol-5-yl)methoxy]-3-(4-chlorobenzyl)-4-methyl-2H-1-benzopyran-2-one] | 112% | – | activation at 10 µM (phospholamban): 18% |
| 1 µM | – | Cc1c(Cc2ccccc2)c(=O)n(Cc2ccccc2)c2cc(OCc3nnn[nH]3)cc(OCc3nnn[nH]3)c12 [Example 8g, 5,7-Bis[(1H-tetrazol-5-yl)methoxy]-1,3-dibenzyl-4-methyl-2(1H)-quinolinone] | 100% | – | The stimulation (%) of Ca^2+ uptake B (SR Ca^2+-ATPase; 10 µM compound): 0%; activation at 10 µM (phospholamban): 18% |
| 1 µM | 28% | Cc1c(Cc2ccccc2)c(=O)oc2cc(OC(C)c3nnn[nH]3)cc(OC(C)c3nnn[nH]3)c12 (centres unmarked) [Example 11b, 3-Benzyl-5,7-bis[1-(1H-tetrazol-5-yl)ethoxy]4-methyl-2 H-1-benzopyran-2-one] | – | – | Emax at 3 µM (coronary arteries): 38% |
| 0.9 µM | – | Cc1c(Cc2ccccc2)c(=O)n(Cc2ccccc2)c2cc(OCC(=O)NO)cc(OCC(=O)NO)c12 [Example 23, 5,7-Bis(hydroxyaminocarbonylmethoxy)-1,3-dibenzyl-4-methyl-2(1H)-quinolinone] | – | – | Emax at 3 µM (coronary arteries): 55%; activation at 5 µM (phospholamban; 5 µM compound): 20% |
